From US6346610B1, “Process for preparing antifungal V-28-3M” (Ajinomoto Co., Ltd., priority 1997, dated 2002)
Read-outs that look alike come from different tables or passages of the source.

Legend:
[1] = antimycotic activity of V-28-3M; settings: V-28-3M obtained by Example 5, compared with V-28-3M described in JP-A-3-81225
animal cells = settings: background statement, JP-A-63-218686 and JP-A-3-81225; cited from earlier work
[2] = background statement, JP-A-63-218686 and JP-A-3-81225; cited from earlier work

What does the source list for `COC(=O)C1C(O)CC2(O)CC(O)CC(O)CC(O)CC(O)CC(=O)CC(O)CC(=O)OC(C(C)CCC(O)CC(=O)c3ccc(N)cc3)C(C)\C=C/C=C\C=C\C=C\C=C\C=C\C=C\C(OC3OC(C)C(O)C(N)C3O)CC1O2` (stereo not drawn) [Example V-28-3M, V-28-3M]?
antimycotic activity [1]: the same result was also obtained; toxicity for animal cells (animal cells): low; antimycotic activity [2]: high
